For test [1], the target named is T1, EPAC1 (amino acids 149–881) (Homo sapiens, UniProt O95398).
T1 construct: recombinant EPAC1 (amino acids 149–881); made in house; host or cells: bacteria
T1 sequence (O95398 149-881 isoform O95398-3): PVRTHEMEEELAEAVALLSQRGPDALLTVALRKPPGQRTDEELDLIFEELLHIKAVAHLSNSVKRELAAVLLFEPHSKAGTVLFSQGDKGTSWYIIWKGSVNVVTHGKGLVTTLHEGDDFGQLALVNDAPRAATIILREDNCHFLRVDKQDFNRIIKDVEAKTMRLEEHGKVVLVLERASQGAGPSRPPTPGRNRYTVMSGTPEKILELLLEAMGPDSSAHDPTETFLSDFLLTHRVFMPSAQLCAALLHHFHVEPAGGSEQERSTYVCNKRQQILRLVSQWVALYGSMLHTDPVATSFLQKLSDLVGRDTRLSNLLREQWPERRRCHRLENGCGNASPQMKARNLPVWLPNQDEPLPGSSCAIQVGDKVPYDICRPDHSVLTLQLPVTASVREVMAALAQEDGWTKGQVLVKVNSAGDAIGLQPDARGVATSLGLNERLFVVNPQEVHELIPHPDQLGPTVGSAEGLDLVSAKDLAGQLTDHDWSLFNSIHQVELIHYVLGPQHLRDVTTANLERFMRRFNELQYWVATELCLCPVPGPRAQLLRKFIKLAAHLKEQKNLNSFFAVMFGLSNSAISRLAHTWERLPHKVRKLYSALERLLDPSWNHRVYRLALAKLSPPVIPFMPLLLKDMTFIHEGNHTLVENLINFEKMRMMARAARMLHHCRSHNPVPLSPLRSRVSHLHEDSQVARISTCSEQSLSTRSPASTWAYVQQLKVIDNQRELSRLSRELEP
In words: In vitro GEF activity assay (MANT-GDP dissociation from Rap1), EPAC1. The format is biochemical. Particulars: 500 μM compound, 500 μM cAMP. As to the method: For this, we used the well-characterised EPAC GEF activity assay. The assay is based on the EPAC-stimulated dissociation of fluorescent MANT-GDP from recombinant Rap1 in the presence of excess non-fluorescent nucleotide.
The data are fitted as single exponential decay with off-set (red lines) to obtain the rate constants kobs, as shown in (b).
EPAC1 and EPAC2 in vitro GEF activities were calculated as previously described. Briefly, recombinant EPAC1 (amino acids 149–881) or EPAC2 (amino acids 280–993) were incubated at 100 nM with recombinant Rap1 (200 nM) preloaded with the fluorescent GDP analogue 2′/3′-O-(N-Methylanthraniloyl)guanosine 5-diphosphate (MANT-GDP) in the presence of 20 μM GDP and then the fluorescence intensity was measured at 360/450 nm (ex/em) over time. […] AC50 or IC50 values were determined from the plots of kobs against the concentration of the agonist and antagonist, respectively Table 1.

In test [2] the target is T2, EPAC1-CNB (Homo sapiens, UniProt O95398).
T2 construct: EPAC1-CNB (amino acids 169–318 of EPAC1); made in house; host or cells: BL-21 Escherichia coli (pGEX-6P-1)
T2 sequence (O95398 169-318 isoform O95398-3): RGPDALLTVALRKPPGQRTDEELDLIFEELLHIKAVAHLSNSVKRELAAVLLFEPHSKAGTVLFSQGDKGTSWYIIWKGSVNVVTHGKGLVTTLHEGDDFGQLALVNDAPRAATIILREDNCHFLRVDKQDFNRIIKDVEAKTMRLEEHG
In words: 8-NBD-cAMP competition assay with EPAC1-CNB. In kind it is binding. As to the method:
Optimisation of assay conditions was performed in 96 well black assay plates (Greiner). Comparison of reference molecules, dose response curves and pilot screen were done in black, low volume 384 assay plates (Greiner). Liquids were dispensed using a Biomek Fx laboratory automation workstation with a 96-multichannel pipetting head (Beckman Coulter) for optimisation, whereas the Echo® Liquid Handler (Labcyte) and Wellmate automated dispenser (Thermo Matrix) were employed for pilot screens (see library screening).
This was done using the optimised assay conditions developed during the study. Library compounds were transferred from pre-prepared, 1000x stock Echo® 384 LDV source plates (Labcyte) into black, low volume 384 assay plates (Greiner) at 25 nl volumes, using an Echo® Liquid Handler (Labcyte), maintaining 0.1–1% DMSO throughout. EPAC1-CNB (0.8 µM) was immediately added using a Wellmate automated dispenser (Thermo Matrix). Plates were centrifuged at 800 rpm, 10 s, and then incubated for 30 minutes, RT, to promote compound-protein complex formation. […] The assay was incubated at room temperature and the fluorescence intensity at 480/535 nm (ex/em) was measured after 4–15 hours using the Envision plate reader.

In another test the test system is protein kinase A (PKA). The test is described as follows: PKA kinase activity assay in HEK293T cell extracts. The format is biochemical. As to conditions: 1 mM cAMP, compound 0.1 to 100 µM. The protocol:
PKA activity was measured directly in cell extracts using the PKA Kinase Activity Assay Kit (Abcam) following the manufacturer's instructions. […] Cells were washed in ice-cold PBS containing phosphatase inhibitors, scrapped into Eppendorf tubes and centrifuged at 200 × g at 4 °C for 5 minutes. Supernatants were discarded and the cell pellet was re-suspended in Complete Lysis Buffer containing 1 mM DTT, 1 mM PMSF and protease inhibitor cocktail (Roche) and then incubated for 10 minutes on ice (on the rocking platform) followed by vortex and centrifugation at […] at 4 °C for 20 minutes. Cell extracts were then transferred to fresh Eppendorf tubes, assayed for protein content and then stored at -80 °C. […] Next, 10 μl of ATP was added to each well and incubated at 30 °C for 90 min, with gentle shaking. The reaction was stopped by aspirating the contents of each well and then 40 μl of PKA phosphospecific substrate antibody was added to each well and then the plate was covered with plastic wrap and incubated at room temperature for 60 min (with gentle shaking every 20 min). […] Fluorescence was then measured at 480/530 nm. […] PKA activity was then measured in the cell extracts using an ELISA assay according to the manufactures instructions. […]

Test [3] concerns the target T2, EPAC1-CNB. Particulars: published Kd values shown for comparison; cited from earlier work.
For test [4], the target named is T2, EPAC1-CNB. The test is described as follows: Ligand observed NMR (1D and waterLOGSY) with EPAC1-CNB. The format is binding. Particulars: compound 50 µM, protein 2.5 µM. An excerpt:
(§1) Given that I942 seems to exert selective agonist properties against EPAC1, but not EPAC2, we next sought to validate whether our isolated ligands can interact with EPAC1 and EPAC2. Ligand observed nuclear magnetic resonance (NMR) is a valuable tool for the identification and validation of small molecule ligands. We therefore used one dimensional proton (1D) and water-ligand observed by gradient spectroscopy (waterLOGSY) NMR to confirm the ability of I942 and I178 to bind to the purified CNBs of EPAC1 and EPAC2, in comparison with the commercially available EPAC1 antagonist, ESI-09[32]. In order to assess ligand/CNB interaction, 1D and waterLOGSY experiments were performed on each compound (50 µM) in the presence or absence of 2.5 µM EPAC-CNB. In the absence of protein, each test compound produced a well-resolved 1D spectrum and a region of each spectrum was chosen to display distinctive spectral peaks originating from the ligand (Fig. 6). In the absence of protein, the corresponding waterLOGSY peaks were small, or absent, due to the negligible signal produced by saturation transfer from water to the freely tumbling small molecule. […] In waterLOGSY spectra, protein-mediated saturation transfer can only occur if the protein-ligand complex has a substantial lifetime. […]
(§2) (A) One dimensional proton (1D) and waterLOGSY (WL) spectra were performed on samples containing hit compound I942 (50 µM) in the absence and presence of EPAC1-CNB, EPAC2-CNB or GST alone, as indicated (2.5 µM). […] Interaction between compound and protein was assessed through comparison of the compound alone and protein-compound sample spectra. […]
(§3) All NMR spectra were recorded on a Bruker AVANCE IIIHD 600 spectrometer equipped with a TCI cryoprobe at 285 K. Test compounds were prepared in deuterated DMSO and diluted to given experimental concentrations in NMR buffer (20 mM Na2PO4, pH 7.0, 50 mM NaCl, 0.1% (w/v) NaN3, 5% (v/v) D2O) with a final DMSO concentration below 0.1%. […] One dimensional proton (1D) and waterLOGSY spectra were recorded for all compounds tested, using pulse sequences as previously described. […]

The target of a further test is GST (Schistosoma japonicum, UniProt P08515). In words: Ligand observed NMR (1D and waterLOGSY) with GST alone. The format is binding. Particulars: compound 50 µM, GST 2.5 µM.
GST, sequence (P08515 whole entry): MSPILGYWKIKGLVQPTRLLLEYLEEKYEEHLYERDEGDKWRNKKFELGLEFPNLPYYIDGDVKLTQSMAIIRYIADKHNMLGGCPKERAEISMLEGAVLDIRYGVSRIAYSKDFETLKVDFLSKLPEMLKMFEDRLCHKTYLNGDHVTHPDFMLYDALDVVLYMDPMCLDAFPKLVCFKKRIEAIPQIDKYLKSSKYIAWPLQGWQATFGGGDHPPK
Description: as §1, §2, §3

In a further test the target is T3, EPAC2-CNB (Mus musculus, UniProt Q9EQZ6).
T3 construct: EPAC2-CNB (amino acids 304–453 of EPAC2); made in house; host or cells: BL-21 Escherichia coli (pGEX-6P-1)
T3 sequence (Q9EQZ6 304-453 isoform Q9EQZ6-3): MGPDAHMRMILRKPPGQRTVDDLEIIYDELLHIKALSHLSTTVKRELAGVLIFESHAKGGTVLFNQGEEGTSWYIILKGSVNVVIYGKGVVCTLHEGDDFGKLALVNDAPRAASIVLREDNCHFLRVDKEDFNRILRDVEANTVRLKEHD
In words: Ligand observed NMR (1D and waterLOGSY) with EPAC2-CNB. Particulars: compound 50 µM, protein 2.5 µM. The format is binding.
Description: as §1, §2, §3

Setting [5] is: 7-point dose response, 75 µM top concentration, 0.75% DMSO, read-out: IC50, 8-NBD-cAMP binding assay.
[6] abbreviates: 8-NBD-cAMP 62.5 nM, EPAC1-CNB 0.8 µM, known competitor compounds, read-out: IC50, inhibition of 8-NBD-cAMP fluorescence.

We go through six compounds from publication PMC5428521, “Identification of a Novel, Small Molecule Partial Agonist for the Cyclic AMP Sensor, EPAC1” (Scientific Reports, 2017).

pIC50, pKd: −log10 of the molar value. Where two headings read alike, the source gives them in different places.

Consider `CC(=O)Nc1cccc(OCC(=O)NS(=O)(=O)c2ccc(C)cc2)c1` [I516, 2-[3-(acetylamino)phenoxy]-N-[(4-methylphenyl)sulfonyl]acetamide], for which the “inhibition of cAMP-induced EPAC1 activity” value in test [1] was “no detectable inhibitory effect”. Besides, the pIC50 on EPAC1-CNB [2] (setting [5]) is less than 4.12.

For the compound `O=S(=O)(NCCNC/C=C/c1ccc(Br)cc1)c1cccc2cnccc12` [H-89, reference compound], in the test on protein kinase A (PKA), the “effect on PKA activity induced by cAMP” value was “dose-dependent inhibition”.

On to “N-[(4-chlorophenyl)sulfonyl]-2-(1-naphthyloxy)acetamide [I288]”, for which the pIC50 on EPAC1-CNB [2] (setting [5]) was approximately 4.15.

Turning to `CO[C@@H]1[C@@H]2OP(=O)(O)OC[C@H]2O[C@H]1n1c(Sc2ccc(Cl)cc2)nc2c(N)ncnc21` [compound 007, 8-pCPT-2′-O-Me-cAMP, reference compound], at EPAC1-CNB [3], the negative-log Kd (pKd) is 6.20. Besides, the pIC50 on EPAC1-CNB [2] (setting [6]) was 5.78.

Consider `Nc1ncnc2c1nc(Sc1ccc(Cl)cc1)n2[C@@H]1O[C@@H]2COP(=O)(O)O[C@H]2[C@H]1O` [8-CPT, 8-CPT-cAMP, reference compound], for which the pKd on EPAC1-CNB [3] was 7.40. Besides, the pIC50 at EPAC1-CNB [2] (setting [6]) is 6.28.

Take `CC(C)(C)c1cc(C(=O)C(C#N)=NNc2cccc(Cl)c2)no1` [ESI-09, 3-(5-tert-butyl-isoxazol-3-yl)-2-[(3-chloro-phenyl)-hydrazonol]-3-oxo-propionitrile, reference compound]: the NMR interaction entry at EPAC1-CNB [4] and on EPAC2-CNB was “attenuated” each time. In addition, on GST, the “NMR interaction with GST alone” value is listed as “may interact non-specifically with GST”.
